The source of these data is ChEMBL document CHEMBL3639364, “Preparation method of dihydroindene amide compounds, their pharmaceutical compositions containing compounds thereof and use as protein kinases inhibitor” (2014).

One may read the IC50 as the midpoint of a concentration-inhibition curve. Read a high IC50 as a need for much substance.

In assay [1] the target is Mast/stem cell growth factor receptor Kit (Homo sapiens, UniProt P10721). In words: (§1) Kinase buffer: 62.5 mM HEPES, pH 7.5; 0.001875% Brij-35; 12.5 mM MgCl2; 2.5 mM DTT. Stop buffer: 100 mM HEPES, pH 7.5; 0.015% Brij-35; 0.2% coating agent 3; 50 mM EDTA. Preparation of kinase solution: Kinase solution was obtained by dissolving kinases in the kinase buffer mentioned above. With regard to c-Kit kinase, the pre-activation treatments should be carried out as follows. 700 nM c-Kit, 2 mM ATP, 4 mM DTT and 10 mM MgCl2 were dissolved in kinase buffer. After being incubated at 28° C. for 15 minutes, the solution was added to the kinase buffer.

For assay [2], the target named is Platelet-derived growth factor receptor beta (Homo sapiens, UniProt P09619). Described as §1.
Chain of Platelet-derived growth factor receptor beta (P09619 whole entry): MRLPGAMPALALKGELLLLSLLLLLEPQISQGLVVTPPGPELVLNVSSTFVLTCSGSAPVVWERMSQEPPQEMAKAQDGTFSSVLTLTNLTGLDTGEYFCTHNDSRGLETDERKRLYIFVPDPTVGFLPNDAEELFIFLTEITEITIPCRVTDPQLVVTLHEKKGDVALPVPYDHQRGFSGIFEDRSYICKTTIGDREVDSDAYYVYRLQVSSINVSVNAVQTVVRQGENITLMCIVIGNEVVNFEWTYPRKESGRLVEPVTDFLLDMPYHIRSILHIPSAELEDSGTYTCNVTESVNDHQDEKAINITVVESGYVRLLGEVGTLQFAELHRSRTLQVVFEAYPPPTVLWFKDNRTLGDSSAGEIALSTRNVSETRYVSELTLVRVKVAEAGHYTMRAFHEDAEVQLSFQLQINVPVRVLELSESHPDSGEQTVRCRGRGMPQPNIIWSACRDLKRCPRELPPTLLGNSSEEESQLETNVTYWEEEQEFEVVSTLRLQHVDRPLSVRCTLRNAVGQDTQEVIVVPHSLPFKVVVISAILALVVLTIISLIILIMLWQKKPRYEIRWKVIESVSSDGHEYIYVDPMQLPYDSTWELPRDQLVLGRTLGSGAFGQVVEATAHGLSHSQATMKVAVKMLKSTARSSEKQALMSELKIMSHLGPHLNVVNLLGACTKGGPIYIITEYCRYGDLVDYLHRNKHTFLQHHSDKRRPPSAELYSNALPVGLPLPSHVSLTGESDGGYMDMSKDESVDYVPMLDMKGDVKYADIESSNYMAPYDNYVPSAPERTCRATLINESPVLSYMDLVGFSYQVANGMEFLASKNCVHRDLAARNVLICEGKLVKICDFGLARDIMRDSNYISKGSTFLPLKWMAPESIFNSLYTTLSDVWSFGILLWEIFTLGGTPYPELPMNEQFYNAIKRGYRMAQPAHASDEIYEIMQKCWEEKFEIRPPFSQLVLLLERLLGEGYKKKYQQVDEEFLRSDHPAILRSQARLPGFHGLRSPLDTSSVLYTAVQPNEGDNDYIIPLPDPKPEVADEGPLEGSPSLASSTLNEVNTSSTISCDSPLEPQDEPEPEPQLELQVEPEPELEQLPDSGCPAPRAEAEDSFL

Chain of Mast/stem cell growth factor receptor Kit (P10721 whole entry): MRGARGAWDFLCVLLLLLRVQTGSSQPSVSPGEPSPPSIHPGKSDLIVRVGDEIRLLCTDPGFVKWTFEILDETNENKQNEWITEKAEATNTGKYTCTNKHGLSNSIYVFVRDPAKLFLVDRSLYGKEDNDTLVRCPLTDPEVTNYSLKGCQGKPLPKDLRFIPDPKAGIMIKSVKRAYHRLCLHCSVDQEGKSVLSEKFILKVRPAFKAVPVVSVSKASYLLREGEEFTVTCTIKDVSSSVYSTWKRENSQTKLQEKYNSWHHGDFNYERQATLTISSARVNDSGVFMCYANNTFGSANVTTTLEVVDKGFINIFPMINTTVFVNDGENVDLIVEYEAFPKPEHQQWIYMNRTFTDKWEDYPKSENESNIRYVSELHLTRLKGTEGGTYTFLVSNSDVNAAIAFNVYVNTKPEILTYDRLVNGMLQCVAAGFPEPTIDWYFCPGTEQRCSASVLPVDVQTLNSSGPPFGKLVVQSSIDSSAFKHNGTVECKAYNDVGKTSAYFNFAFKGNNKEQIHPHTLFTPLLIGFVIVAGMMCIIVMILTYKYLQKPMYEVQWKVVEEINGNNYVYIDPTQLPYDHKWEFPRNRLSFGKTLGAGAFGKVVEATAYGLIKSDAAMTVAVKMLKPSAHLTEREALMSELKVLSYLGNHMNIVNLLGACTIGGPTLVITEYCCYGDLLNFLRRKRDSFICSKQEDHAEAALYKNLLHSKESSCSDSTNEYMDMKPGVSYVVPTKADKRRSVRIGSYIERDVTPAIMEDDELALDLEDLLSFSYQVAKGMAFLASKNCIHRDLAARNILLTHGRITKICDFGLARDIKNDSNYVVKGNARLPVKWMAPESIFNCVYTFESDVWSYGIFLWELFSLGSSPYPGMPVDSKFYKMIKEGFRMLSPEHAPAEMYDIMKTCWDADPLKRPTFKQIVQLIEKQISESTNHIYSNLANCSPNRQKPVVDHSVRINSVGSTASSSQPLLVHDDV

Consider `CCN1CCN(C2CCc3cc(C(=O)Nc4ccc(C)c(Nc5nccc(-c6cccnc6)n5)c4)ccc32)CC1` (centres undefined), for which the IC50 in assay [1] turned out to be 26 nM; in assay [2] it was 15 nM.
In the case of `Cc1ccc(NC(=O)c2ccc3c(c2)CCC3N2CC[C@@H](N(C)C)C2)cc1Nc1nccc(-c2cccnc2)n1` (some centres undefined), the IC50 in assay [1] is 32 nM; in assay [2], 21 nM.
